Assays:
Experiment in all cases: relative viability (nuclei count vs DMSO), 5 days (fraction); higher = more cells survive
XMD8-85 + Pictilisib = compound: CN1CCN(CC1)C2=CC(=C(C=C2)NC3=NC=C4C(=N3)N(C5=CC=CC=C5C(=O)N4C)C)OC [XMD8-85] + CS(=O)(=O)N1CCN(Cc2cc3nc(-c4cccc5[nH]ncc45)nc(N4CCOCC4)c3s2)CC1 [Pictilisib] (partner 1 µM)
Procedure, shortened: (§1)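 Lung cancer cell lines in 1536-well plates were dosed by pin tool the day after seeding, either with one drug alone or with a fixed anchor-drug dose plus five library-drug doses (not always all listed) in √10 steps. After 5 days, cells were fixed and their nuclei stained in one step (final 0.05% Triton X-100, 1% formaldehyde, 1 ug/ml Hoechst), then counted on 4× images. Relative viability is the nuclei count in treated wells divided by that in vehicle wells. Values are medians of duplicate plates.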

4EGI-1 + Phenformin = compound: O=C(O)C(Cc1ccccc1[N+](=O)[O-])=NNc1nc(-c2ccc(Cl)c(Cl)c2)cs1 (mixture of isomers) [4EGI-1] + N=C(N)NC(=N)NCCc1ccccc1 [Phenformin] (partner 250 µM)
Procedure, shortened: as §1

XMD8-85 + AZD7762 = compound: CN1CCN(CC1)C2=CC(=C(C=C2)NC3=NC=C4C(=N3)N(C5=CC=CC=C5C(=O)N4C)C)OC [XMD8-85] + NC(=O)Nc1cc(-c2cccc(F)c2)sc1C(=O)N[C@H]1CCCNC1 [AZD7762] (partner 0.2 µM)
Procedure, shortened: as §1

XMD8-85 + Trametinib = compound: CN1CCN(CC1)C2=CC(=C(C=C2)NC3=NC=C4C(=N3)N(C5=CC=CC=C5C(=O)N4C)C)OC [XMD8-85] + CC(=O)Nc1cccc(-n2c(=O)n(C3CC3)c(=O)c3c(Nc4ccc(I)cc4F)n(C)c(=O)c(C)c32)c1 [Trametinib] (partner 0.02 µM)
Procedure, shortened: as §1

Cell Line	relative viability (XMD8-85 + Pictilisib; first compound 0.08 µM)	relative viability (XMD8-85 + Pictilisib; first compound 0.253 µM)	relative viability (XMD8-85 + Pictilisib; first compound 0.8 µM)	relative viability (XMD8-85 + Pictilisib; first compound 2.53 µM)	relative viability (XMD8-85 + Pictilisib; first compound 8 µM)	relative viability (4EGI-1 + Phenformin; first compound 0.5 µM)	relative viability (4EGI-1 + Phenformin; first compound 5 µM)	relative viability (4EGI-1 + Phenformin; first compound 15.81 µM)	relative viability (4EGI-1 + Phenformin; first compound 50 µM)	relative viability (XMD8-85 + AZD7762; first compound 0.08 µM)	relative viability (XMD8-85 + AZD7762; first compound 0.253 µM)	relative viability (XMD8-85 + AZD7762; first compound 0.8 µM)	relative viability (XMD8-85 + AZD7762; first compound 2.53 µM)	relative viability (XMD8-85 + AZD7762; first compound 8 µM)	relative viability (XMD8-85 + Trametinib; first compound 0.08 µM)	relative viability (XMD8-85 + Trametinib; first compound 0.253 µM)	relative viability (XMD8-85 + Trametinib; first compound 0.8 µM)	relative viability (XMD8-85 + Trametinib; first compound 2.53 µM)	relative viability (XMD8-85 + Trametinib; first compound 8 µM)	relative viability (4EGI-1 + Phenformin; first compound 1.581 µM)
NCI-H322M	0.551	0.501	0.502	0.527	0.409	0.794	0.891	0.689	0.301	0.566	0.606	0.568	0.451	0.38	0.534	0.5	0.44	0.418	0.455	
NCI-H358	0.353	0.366	0.359	0.362	0.304	0.311	0.343	0.215	0.111	0.446	0.497	0.667	0.639	0.399	0.111	0.139	0.128	0.11	0.132	0.297
NCI-H441	0.405	0.389	0.608	0.438	0.389	1.04	0.919	0.785	0.183	1.21	1.01	1.12	1.11	0.562	0.4	0.427	0.463	0.494	0.234	0.76
NCI-H460	0.341	0.356	0.405	0.333	0.156	0.549	0.593	0.243	0.0399	0.624	0.643	0.69	0.659	0.432	0.176	0.122	0.2	0.133	0.055	
NCI-H596	0.392	0.396	0.359	0.397	0.354	0.859	1.01	0.961	0.705	1.18	0.944	1.06	1.1	0.966	0.866	0.72	0.675	0.769	0.696	0.732
NCI-H647	0.473	0.45	0.367	0.434	0.155	0.562	0.819	0.419	0.141	0.306	0.371	0.586	0.503	0.198	0.478	0.486	0.485	0.465	0.28	
NCI-H650		0.892	0.846	0.8	0.524	0.455	0.451	0.47	0.31	0.92	0.991	1	0.829	0.781	0.904	1	0.977	0.94	0.601	
NCI-H727	0.373	0.387	0.342	0.433	0.327	0.648	0.511	0.572	0.332	0.768	0.619	0.465	0.576	0.42	0.373	0.375	0.405	0.37	0.368	0.518
SW 900						0.812	0.807	0.527	0.322	0.555	0.669	0.589	0.626	0.304	0.813	0.746	0.935		0.759	

Reference: the supplement of paper PMC10307832
